Laboratory results published in patent publication US7396837B2, “Antitumoral analogs of lamellarins” (Pharma Mar, S.A.U., priority 2002, dated 2008).

Columns and labels:
Format in all cases: cell-based
SK-BR-3 = experiment: SRB colorimetric cell growth inhibition assay, SK-BR-3; conditions: Homo sapiens, SK-BR-3, SK-BR-3; for GI50: GI=growth inhibition, read-out: GI50 SK-BR-3; for CC50: LC=cell killing (cytotoxic effect), read-out: LC50 SK-BR-3; for IC (TGI): TGI=total growth inhibition (cytostatic effect), read-out: TGI SK-BR-3
Procedure, shortened: (§1)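 After uninterrupted treatment, cultures are fixed and stained with sulforhodamine B, and absorbance reflects cell growth and viability. Each value represents the average of triplicate wells with SD.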

A-549 = experiment: SRB colorimetric cell growth inhibition assay, A-549; conditions: Homo sapiens, A549, A-549; for GI50: GI=growth inhibition, read-out: GI50 A-549; for CC50: LC=cell killing (cytotoxic effect), read-out: LC50 A-549; for IC (TGI): TGI=total growth inhibition (cytostatic effect), read-out: TGI A-549
Procedure, shortened: as §1

SK-MEL-28 = experiment: SRB colorimetric cell growth inhibition assay, SK-MEL-28; conditions: Homo sapiens, SK-MEL-28, MEL-28; for GI50: GI=growth inhibition, read-out: GI50 MEL-28; for CC50: LC=cell killing (cytotoxic effect), read-out: LC50 MEL-28; for IC (TGI): TGI=total growth inhibition (cytostatic effect), read-out: TGI MEL-28
Procedure, shortened: as §1

H-MEC-1 = experiment: SRB colorimetric cell growth inhibition assay, H-MEC-1; conditions: Homo sapiens, HMEC-1, H-MEC-1; for GI50: GI=growth inhibition; for IC (TGI): TGI=total growth inhibition (cytostatic effect), read-out: TGI H-MEC-1
Procedure, shortened: (§2)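 SRB colorimetric readout of cell growth/viability in 96-well format. Means ± SD from triplicate wells; GI (growth inhibition), TGI (total growth inhibition, cytostatic) and LC (cell killing, cytotoxic) parameters derived.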

[1] = as above; conditions: human, H-MEC-1 cells, H-MEC-1; LC=cell killing (cytotoxic effect); read-out: LC50 H-MEC-1
Procedure, shortened: as §2

LNCaP = experiment: SRB colorimetric cell growth inhibition assay, LNCaP; conditions: Homo sapiens, LNCaP, LN-caP; for GI50: GI=growth inhibition, read-out: GI50 LN-caP; for CC50: LC=cell killing (cytotoxic effect), read-out: LC50 LN-caP; for IC (TGI): TGI=total growth inhibition (cytostatic effect), read-out: TGI LN-caP
Procedure, shortened: as §1

K-562 = experiment: SRB colorimetric cell growth inhibition assay, K-562; conditions: Homo sapiens, K562, K-562; for GI50: GI=growth inhibition, read-out: GI50 K-562; for CC50: LC=cell killing (cytotoxic effect), read-out: LC50 K-562; for IC (TGI): TGI=total growth inhibition (cytostatic effect), read-out: TGI K-562
Procedure, shortened: as §1

PANC-1 = experiment: SRB colorimetric cell growth inhibition assay, PANC-1; conditions: Homo sapiens, PANC-1, PANC-1; for GI50: GI=growth inhibition, read-out: GI50 PANC-1; for CC50: LC=cell killing (cytotoxic effect), read-out: LC50 PANC-1; for IC (TGI): TGI=total growth inhibition (cytostatic effect), read-out: TGI PANC-1
Procedure, shortened: as §1

IGROV-ET = experiment: SRB colorimetric cell growth inhibition assay, IGROV-ET (ET-743 resistant); conditions: Homo sapiens, IGROV-ET; for GI50: GI=growth inhibition, read-out: GI50 IGROV-ET; for CC50: LC=cell killing (cytotoxic effect), read-out: LC50 IGROV-ET; for IC (TGI): TGI=total growth inhibition (cytostatic effect), read-out: TGI IGROV-ET
Procedure, shortened: as §1

LoVo = experiment: SRB colorimetric cell growth inhibition assay, LoVo; conditions: Homo sapiens, LoVo; for GI50: GI=growth inhibition, read-out: GI50 LOVO; for CC50: LC=cell killing (cytotoxic effect), read-out: LC50 LOVO; for IC (TGI): TGI=total growth inhibition (cytostatic effect), read-out: TGI LOVO
Procedure, shortened: as §1

LoVo-Dox = experiment: SRB colorimetric cell growth inhibition assay, LoVo-Dox (MDR); conditions: Homo sapiens, LOVO-DOX; for GI50: GI=growth inhibition, read-out: GI50 LOVO-DOX; for CC50: LC=cell killing (cytotoxic effect), read-out: LC50 LOVO-DOX; for IC (TGI): TGI=total growth inhibition (cytostatic effect), read-out: TGI LOVO-DOX
Procedure, shortened: as §1

IGROV = experiment: SRB colorimetric cell growth inhibition assay, IGROV; conditions: Homo sapiens, IGROV; for GI50: GI=growth inhibition, read-out: GI50 IGROV; for CC50: LC=cell killing (cytotoxic effect), read-out: LC50 IGROV; for IC (TGI): TGI=total growth inhibition (cytostatic effect), read-out: TGI IGROV
Procedure, shortened: as §1

SKOV-3 = experiment: SRB colorimetric cell growth inhibition assay, SKOV-3; conditions: Homo sapiens; for GI50: SK-OV-3, SKOV-3, GI=growth inhibition, read-out: GI50 SKOV-3; for CC50 / IC (TGI): SK-OV-3, SKOV-3; for CC50: LC=cell killing (cytotoxic effect), read-out: LC50 SKOV-3; for IC (TGI): TGI=total growth inhibition (cytostatic effect), read-out: TGI SKOV-3
Procedure, shortened: as §2

HT-29 = experiment: SRB colorimetric cell growth inhibition assay, HT-29; conditions: Homo sapiens, HT-29, HT-29; for GI50: GI=growth inhibition, read-out: GI50 HT-29; for CC50: LC=cell killing (cytotoxic effect), read-out: LC50 HT-29; for IC (TGI): TGI=total growth inhibition (cytostatic effect), read-out: TGI HT-29
Procedure, shortened: as §1

DU-145 = experiment: SRB colorimetric cell growth inhibition assay, DU-145; conditions: Homo sapiens, DU-145, DU-145; for GI50: GI=growth inhibition, read-out: GI50 DU-145; for CC50: LC=cell killing (cytotoxic effect), read-out: LC50 DU-145; for IC (TGI): TGI=total growth inhibition (cytostatic effect), read-out: TGI DU-145
Procedure, shortened: as §1

COc1cc2c(cc1OC)-c1c(-c3ccc(OC(=O)[C@H](C)N)c(OC)c3)c3c4cc(OC)c(OC(=O)[C@H](C)N)cc4oc(=O)c3n1CC2 [Compound 63]
GI50 (SK-BR-3): 1.57 µM | CC50 (SK-BR-3): 14.7 µM | IC (TGI) (SK-BR-3): 4.8 µM | GI50 (A-549): 2.84 µM | CC50 (A-549): 10.9 µM | IC (TGI) (A-549): 5.57 µM | GI50 (SK-MEL-28): 2.34 µM | CC50 (SK-MEL-28): 10.1 µM | IC (TGI) (SK-MEL-28): 4.87 µM | GI50 (H-MEC-1): 2.72 µM | IC (TGI) (H-MEC-1): 5.25 µM | CC50 [1]: 10.1 µM | GI50 (LNCaP): 1.13 µM | CC50 (LNCaP): 9.61 µM | IC (TGI) (LNCaP): 3.47 µM | GI50 (K-562): 2.9 µM | CC50 (K-562): 15.2 µM | IC (TGI) (K-562): 6.75 µM | GI50 (PANC-1): 1.93 µM | CC50 (PANC-1): 13.2 µM | IC (TGI) (PANC-1): 5.05 µM | GI50 (IGROV-ET): 0.64 µM | CC50 (IGROV-ET): 15.2 µM | IC (TGI) (IGROV-ET): 2.86 µM | GI50 (LoVo): 1.46 µM | CC50 (LoVo): 9.11 µM | IC (TGI) (LoVo): 3.68 µM | GI50 (LoVo-Dox): 0.909 µM | CC50 (LoVo-Dox): 9.85 µM | IC (TGI) (LoVo-Dox): 2.95 µM | GI50 (IGROV): 0.975 µM | CC50 (IGROV): 14.6 µM | IC (TGI) (IGROV): 3.86 µM | GI50 (SKOV-3): 3.06 µM | CC50 (SKOV-3): 11.1 µM | IC (TGI) (SKOV-3): 5.84 µM | GI50 (HT-29): 2.92 µM | CC50 (HT-29): 11.1 µM | IC (TGI) (HT-29): 5.7 µM | GI50 (DU-145): 2.2 µM | CC50 (DU-145): 11.7 µM | IC (TGI) (DU-145): 5.08 µM

COc1cc2c(cc1OC)-c1c(-c3ccc(OC(=O)[C@H](Cc4ccccc4)NC(=O)OC(C)(C)C)c(OC)c3)c3c4cc(OC)c(OC(=O)[C@H](Cc5ccccc5)NC(=O)OC(C)(C)C)cc4oc(=O)c3n1CC2 [Compound 84]
GI50 (SK-BR-3): 0.46 µM | CC50 (SK-BR-3): 9.9 µM | IC (TGI) (SK-BR-3): 0.95 µM | GI50 (A-549): 2.66 µM | CC50 (A-549): 9.03 µM | IC (TGI) (A-549): 4.91 µM | GI50 (SK-MEL-28): 2.07 µM | CC50 (SK-MEL-28): 7.21 µM | IC (TGI) (SK-MEL-28): 3.86 µM | GI50 (H-MEC-1): 0.682 µM | IC (TGI) (H-MEC-1): 1.86 µM | CC50 [1]: 5.96 µM | GI50 (LNCaP): 0.71 µM | CC50 (LNCaP): 5.21 µM | IC (TGI) (LNCaP): 2.01 µM | GI50 (K-562): 0.731 µM | CC50 (K-562): 9.9 µM | IC (TGI) (K-562): 3.3 µM | GI50 (PANC-1): 0.501 µM | CC50 (PANC-1): 9.9 µM | IC (TGI) (PANC-1): 5.47 µM | GI50 (IGROV-ET): 4.26 µM | CC50 (IGROV-ET): 9.9 µM | IC (TGI) (IGROV-ET): 8.25 µM | GI50 (LoVo): 4.48 µM | CC50 (LoVo): 9.9 µM | IC (TGI) (LoVo): 9.9 µM | GI50 (LoVo-Dox): 9.9 µM | CC50 (LoVo-Dox): 9.9 µM | IC (TGI) (LoVo-Dox): 9.9 µM | GI50 (IGROV): 2.41 µM | CC50 (IGROV): 9.9 µM | IC (TGI) (IGROV): 6.28 µM | GI50 (SKOV-3): 4.58 µM | CC50 (SKOV-3): 9.9 µM | IC (TGI) (SKOV-3): 9.9 µM | GI50 (HT-29): 2.34 µM | CC50 (HT-29): 9.9 µM | IC (TGI) (HT-29): 9.9 µM | GI50 (DU-145): 3.41 µM | CC50 (DU-145): 9.9 µM | IC (TGI) (DU-145): 8.36 µM
